24 molecules from US20210395256A1, “TYROSINE KINASE INHIBITORS, COMPOSITIONS AND METHODS THERE OF” (Betta Pharmaceuticals Co., Ltd., priority 2018, published 2021) can be followed below.

Counter-ions that a name gives are not always drawn.

TrkA kinase, sequence (P04629 33-796): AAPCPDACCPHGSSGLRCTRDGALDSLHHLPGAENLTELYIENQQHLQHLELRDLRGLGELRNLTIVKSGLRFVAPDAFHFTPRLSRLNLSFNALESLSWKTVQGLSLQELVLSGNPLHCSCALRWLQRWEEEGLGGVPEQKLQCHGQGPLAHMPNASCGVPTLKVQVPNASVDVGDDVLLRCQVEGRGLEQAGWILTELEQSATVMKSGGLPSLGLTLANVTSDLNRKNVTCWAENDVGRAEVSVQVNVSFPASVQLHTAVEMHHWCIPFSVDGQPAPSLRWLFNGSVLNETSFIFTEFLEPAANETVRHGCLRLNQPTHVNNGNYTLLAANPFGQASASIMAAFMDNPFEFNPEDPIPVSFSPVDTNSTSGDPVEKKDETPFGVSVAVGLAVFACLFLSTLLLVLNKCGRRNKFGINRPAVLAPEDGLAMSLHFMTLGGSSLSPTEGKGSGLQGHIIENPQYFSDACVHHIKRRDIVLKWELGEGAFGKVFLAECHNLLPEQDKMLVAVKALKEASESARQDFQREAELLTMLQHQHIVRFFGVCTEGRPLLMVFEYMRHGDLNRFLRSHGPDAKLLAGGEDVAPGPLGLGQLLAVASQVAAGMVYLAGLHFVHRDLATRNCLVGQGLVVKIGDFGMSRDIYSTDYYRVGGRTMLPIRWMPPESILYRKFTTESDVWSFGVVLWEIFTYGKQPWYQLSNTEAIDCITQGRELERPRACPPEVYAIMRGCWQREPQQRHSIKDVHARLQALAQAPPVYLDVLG

One assay deals with TrkA kinase (Homo sapiens, UniProt P04629). As to the kind of experiment: TrkA kinase assay (mobility shift assay). The class given is biochemical. To be noted: class symbols; read-out: Trk A Kinase IC50. As to the method:
Example 201 TrkA Kinase Assay
Mobility shift assay was used to determine the inhibitory activity of compounds against TrkA kinase. Assay procedures are as follows:
1× Kinase base buffer (50 mM HEPES, pH 7.5; 0.0015% Brij-35)
Stop buffer (100 mM HEPES, pH 7.5; 0.015% Brij-35; 0.2% Coating Reagent #3; 50 mM EDTA)
1) Dilute the compound to 50× of the final desired highest inhibitor concentration in reaction by 100% DMSO. Transfer 100 μl of this compound dilution to a well in a 96-well plate.
2) For all compounds, transfer the compound in tubes to one well on 96-well storage plate and serially dilute the compound by transferring 30 μl to 60 μl of 100% DMSO in the next well and so forth for a total of 10 concentrations.
3) Add 100 μl of 100% DMSO to two empty wells for no compound control and no enzyme control in the same 96-well plate. Mark the plate as source plate.
4) Prepare intermediate plate
Transfer 10 μl of compound from source plate to a new 96-well plate as the intermediate plate
Add 90 µl of 1× kinase buffer to each well of the intermediate plate.
Mix the compounds in intermediate plate for 10 min on shaker.
1) Transfer 5 μl of each well from the 96-well intermediate plate to a 384-well plate in duplicates. For example, A1 of the 96-well plate is transferred to A1 and A2 of the 384-well plate. A2 of the 96-well plate is transferred to A3 and A4 of the 384-well plate, and so on.
1) Prepare 2.5× enzyme solution
Add kinase in 1× kinase base buffer.
2) Prepare 2.5× peptide solution Add FAM-labeled peptide and ATP in the 1× kinase base buffer.
3) Assay plate already contains 5 μl of compound in 10% DMSO.
4) Transfer 2.5× enzyme solution to the assay plate
Add 10 μl of 2.5× enzyme solution to each well of the 384-well assay plate.
5) Incubate at room temperature for 10 min.
6) Transfer 2.5× peptide solution to the assay plate
Add 10 μl of 2.5× peptide solution to each well of the 384-well assay plate.
Kinase reaction conditions are shown as Table 11:
7) Kinase reaction and stop
Incubate at 28° C. for specified period of time.
Add 25 μl of stop buffer to stop reaction.
1) Copy conversion data from Caliper program.
2) Convert conversion values to inhibition values.
Percent inhibition=(max-conversion)/(max-min)*100.
“max” stands for DMSO control; “min” stands for low control.
3) Fit the data in XLFit excel add-in version 5.4.0.8 to obtain IC50 values.
Equation used is: Y=Bottom+(Top-Bottom)/(1+(IC50/X)^HillSlope)
As for `CN1CCN(c2cc3[nH]c(-c4cnn5ccc(N6CCC[C@@H]6c6cc(F)ccc6F)nc45)nc3cc2C#N)CC1` [Compound 163, (R)-2-(5-(2-(2,5-difluorophenyl)pyrrolidin-1-yl)pyrazolo[1,5-a]pyrimidin-3-yl)-6-(4-methylpiperazin-1-yl)-1H-benzo[d]imidazole-5-carbonitrile], the IC50 (usually the concentration that inhibits the measured activity by half) is at most 10 nM. As to `COc1cc2[nH]c(-c3cnn4ccc(N5CCC[C@@H]5c5ccc(F)cc5)nc34)nc2cc1C#N` [Compound 198, (R)-2-(5-(2-(4-fluorophenyl)pyrrolidin-1-yl)pyrazolo[1,5-a]pyrimidin-3-yl)-6-methoxy-1H-benzo[d]imidazole-5-carbonitrile], the IC50 is over 50 nM. Regarding `N#Cc1cc2nc(-c3cnn4ccc(N5CCC[C@@H]5c5cc(F)ccc5F)nc34)[nH]c2cc1N1CC(O)C1` [Compound 145, (R)-2-(5-(2-(2,5-difluorophenyl)pyrrolidin-1-yl)pyrazolo[1,5-a]pyrimidin-3-yl)-6-(3-hydroxyazetidin-1-yl)-1H-benzo[d]imidazole-5-carbonitrile], the concentration for half-maximal inhibition (IC50) was at most 10 nM. On to `Fc1ccc(F)c([C@H]2CCCN2c2ccn3ncc(-c4nnc(C5CCN5)[nH]4)c3n2)c1` (stereo partly drawn) [Compound 15, 3-(5-(azetidin-2-yl)-4H-1,2,4-triazol-3-yl)-5-((R)-2-(2,5-difluorophenyl)pyrrolidin-1-yl)pyrazolo[1,5-a]pyrimidine], for which the IC50 was over 50 nM.

With `O=C(O)c1ccc2[nH]c(-c3cnn4ccc(N5CCC[C@@H]5c5cc(F)ccc5F)nc34)cc2c1` [Compound 185, (R)-2-(5-(2-(2,5-difluorophenyl)pyrrolidin-1-yl)pyrazolo[1,5-a]pyrimidin-3-yl)-1H-indole-5-carboxylic acid], the IC50 is at most 10 nM.

Regarding `COc1cnc(OC)n2nc(-c3cnn4ccc(N5CCC[C@@H]5c5cc(F)ccc5F)nc34)nc12` [Compound 181, (R)-2-(5-(2-(2,5-difluorophenyl)pyrrolidin-1-yl)pyrazolo[1,5-a]pyrimidin-3-yl)-5,8-dimethoxy-[1,2,4]triazolo[1,5-c]pyrimidine], the IC50 is 10 to 50 nM. With `OC(c1nnc(-c2cnn3ccc(N4CCC[C@@H]4c4cc(F)ccc4F)nc23)[nH]1)(C(F)(F)F)C(F)(F)F` [Compound 27, (R)-2-(5-(5-(2-(2,5-difluorophenyl)pyrrolidin-1-yl)pyrazolo[1,5-a]pyrimidin-3-yl)-4H-1,2,4-triazol-3-yl)-1,1,1,3,3,3-hexafluoropropan-2-ol], the IC50 was over 50 nM. For the molecule `Cc1ccnc2[nH]c(-c3cnn4ccc(N5CCC[C@@H]5c5cc(F)ccc5F)nc34)nc12` [Compound 122, (R)-2-(5-(2-(2,5-difluorophenyl)pyrrolidin-1-yl)pyrazolo[1,5-a]pyrimidin-3-yl)-7-methyl-3H-imidazo[4,5-b]pyridine], the half-inhibitory concentration (IC50) lay in the range of 10 to 50 nM.

As for `Fc1ccc(F)c([C@H]2CCCN2c2ccn3ncc(-c4nc5cc6c(cc5o4)OCO6)c3n2)c1` [Compound 131, (R)-6-(5-(2-(2,5-difluorophenyl)pyrrolidin-1-yl)pyrazolo[1,5-a]pyrimidin-3-yl)-[1,3]dioxolo[4′,5′:4,5]benzo[1,2-d]oxazole], the IC50 was in the range of 10 to 50 nM. On the same count and under the same terms, in the case of `Fc1ccc(F)c([C@H]2CCCN2c2ccn3ncc(-c4nc5nccnc5[nH]4)c3n2)c1` [Compound 128, (R)-2-(5-(2-(2,5-difluorophenyl)pyrrolidin-1-yl)pyrazolo[1,5-a]pyrimidin-3-yl)-1H-imidazo[4,5-b]pyrazine] it was at most 10 nM. Same read-out and setting: for `N#Cc1cc2nc(-c3cnn4ccc(N5CCC[C@@H]5c5cc(F)ccc5F)nc34)[nH]c2cc1O` [Compound 149, (R)-2-(5-(2-(2,5-difluorophenyl)pyrrolidin-1-yl)pyrazolo[1,5-a]pyrimidin-3-yl)-6-hydroxy-1H-benzo[d]imidazole-5-carbonitrile] the value was at most 10 nM; for `Oc1cc2nc(-c3cnn4ccc(N5CCC[C@@H]5c5cc(F)ccc5F)nc34)[nH]c2cc1O` [Compound 117, (R)-2-(5-(2-(2,5-difluorophenyl)pyrrolidin-1-yl)pyrazolo[1,5-a]pyrimidin-3-yl)-1H-benzo[d]imidazole-5,6-diol], at most 10 nM.

The assay is the same for the next values; noted with them: numeric values; read-out: Trk A Kinase IC50.
For the molecule `CC(C)C[C@H](N)C(=O)O[C@@H](C)c1nnc(-c2cnn3ccc(N4CCC[C@@H]4c4cc(F)ccc4F)nc23)[nH]1` [Compound 51, (S)-1-(5-(5-((R)-2-(2,5-difluorophenyl)pyrrolidin-1-yl)pyrazolo[1,5-a]pyrimidin-3-yl)-4H-1,2,4-triazol-3-yl)ethyl L-leucinate hydrochloride], the IC50 was 3 nM. For `CN1CCC(c2nnc(-c3cnn4ccc(N5CCC[C@@H]5c5cc(F)ccc5F)nc34)[nH]2)CC1` [Compound 38, (R)-5-(2-(2,5-difluorophenyl)pyrrolidin-1-yl)-3-(5-(1-methylpiperidin-4-yl)-4H-1,2,4-triazol-3-yl)pyrazolo[1,5-a]pyrimidine], the IC50 turned out to be 11.7 nM. Turning to `OCC12CC(c3nnc(-c4cnn5ccc(N6CCC[C@@H]6c6cc(F)ccc6F)nc45)[nH]3)(C1)C2` [Compound 43, (R)-(3-(5-(5-(2-(2,5-difluorophenyl)pyrrolidin-1-yl)pyrazolo[1,5-a]pyrimidin-3-yl)-4H-1,2,4-triazol-3-yl)bicyclo[1.1.1]pentan-1-yl)methanol], the IC50 came to 2.51 nM. On to `O=C(O)c1cc2[nH]c(-c3cnn4ccc(N5CCC[C@@H]5c5cc(F)ccc5F)nc34)nc2c(F)c1F` [Compound 138, (R)-2-(5-(2-(2,5-difluorophenyl)pyrrolidin-1-yl)pyrazolo[1,5-a]pyrimidin-3-yl)-4,5-difluoro-1H-benzo[d]imidazole-6-carboxylic acid], for which the IC50 was determined as 0.48 nM. With `Fc1ccc(F)c([C@H]2CCCN2c2ccn3ncc(-c4nc5ncc(Cl)c(Cl)c5[nH]4)c3n2)c1` [Compound 102, (R)-6,7-dichloro-2-(5-(2-(2,5-difluorophenyl)pyrrolidin-1-yl)pyrazolo[1,5-a]pyrimidin-3-yl)-1H-imidazo[4,5-b]pyridine], the IC50 was found to be 7 nM.

On to `O[C@H]1CCn2nc(-c3cnn4ccc(N5CCC[C@@H]5c5cc(F)ccc5F)nc34)nc2C1` [Compound 187, (S)-2-(5-((R)-2-(2,5-difluorophenyl)pyrrolidin-1-yl)pyrazolo[1,5-a]pyrimidin-3-yl)-5,6,7,8-tetrahydro-[1,2,4]triazolo[1,5-a]pyridin-7-ol], for which the IC50 came out at 6.6 nM. Take `Fc1ccc(F)c([C@H]2CCCN2c2ccn3ncc(-c4nc5cnccc5o4)c3n2)c1` [Compound 73, (R)-2-(5-(2-(2,5-difluorophenyl)pyrrolidin-1-yl)pyrazolo[1,5-a]pyrimidin-3-yl)oxazolo[4,5-c]pyridine]: the IC50 came to 0.59 nM. In the case of `COC(=O)c1cc2[nH]c(-c3cnn4ccc(N5CCC[C@@H]5c5cc(F)ccc5F)nc34)nc2c(F)c1F` [Compound 137, methyl (R)-2-(5-(2-(2,5-difluorophenyl)pyrrolidin-1-yl)pyrazolo[1,5-a]pyrimidin-3-yl)-4,5-difluoro-1H-benzo[d]imidazole-6-carboxylate], the IC50 is 2.65 nM. On to `Fc1ccc(F)c([C@H]2CCCN2c2ccn3ncc(-c4nc5cccc(Cl)c5[nH]4)c3n2)c1` [Compound 97, (R)-3-(7-chloro-1H-benzo[d]imidazol-2-yl)-5-(2-(2,5-difluorophenyl)pyrrolidin-1-yl)pyrazolo[1,5-a]pyrimidine], for which the IC50 stood at 1.9 nM.

Turning to `Fc1ccc(F)c([C@H]2CCCN2c2ccn3ncc(-c4nc5cc(Cl)c(Cl)cc5[nH]4)c3n2)c1` [Compound 105, (R)-3-(5,6-dichloro-1H-benzo[d]imidazol-2-yl)-5-(2-(2,5-difluorophenyl)pyrrolidin-1-yl)pyrazolo[1,5-a]pyrimidine], the IC50 stood at 32.9 nM.

`Fc1ccc(F)c([C@H]2CCCN2c2ccn3ncc(-c4nc5ccc(OC(F)F)cc5[nH]4)c3n2)c1` [Compound 81, (R)-3-(6-(difluoromethoxy)-1H-benzo[d]imidazol-2-yl)-5-(2-(2,5-difluorophenyl)pyrrolidin-1-yl)pyrazolo[1,5-a]pyrimidine]: the IC50 came to 2.18 nM. Take `CCC(O)C(F)(F)c1nnc(-c2cnn3ccc(N4CCC[C@@H]4c4cc(F)ccc4F)nc23)[nH]1` (stereo partly drawn) [Compound 46, 1-(5-(5-((R)-2-(2,5-difluorophenyl)pyrrolidin-1-yl)pyrazolo[1,5-a]pyrimidin-3-yl)-4H-1,2,4-triazol-3-yl)-1,1-difluorobutan-2-ol]: the IC50 was 2.02 nM.
